The record followed here is BindingDB's records for doi:10.1080/14756360400002007 (Crefsip, 2005).

For orientation: Ki means a measure of affinity in units of concentration, obtained from inhibition or displacement.

One experiment deals with T1, Glutamate--tRNA ligase (Escherichia coli (strain K12), UniProt P04805).
T1 sequence (P04805 whole entry): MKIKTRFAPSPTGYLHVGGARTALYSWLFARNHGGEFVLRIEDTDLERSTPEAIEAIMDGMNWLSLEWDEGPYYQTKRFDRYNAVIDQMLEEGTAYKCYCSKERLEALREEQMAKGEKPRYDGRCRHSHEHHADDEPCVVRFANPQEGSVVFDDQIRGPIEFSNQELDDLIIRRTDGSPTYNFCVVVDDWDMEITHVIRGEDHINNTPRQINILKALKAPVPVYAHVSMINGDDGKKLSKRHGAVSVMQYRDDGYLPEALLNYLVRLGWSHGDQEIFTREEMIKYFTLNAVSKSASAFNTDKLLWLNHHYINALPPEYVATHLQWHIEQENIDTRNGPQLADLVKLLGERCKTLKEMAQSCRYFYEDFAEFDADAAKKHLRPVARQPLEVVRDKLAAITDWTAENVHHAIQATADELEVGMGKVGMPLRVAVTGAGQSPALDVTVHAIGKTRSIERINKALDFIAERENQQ
As to the kind of experiment: Determination of the Inhibition Type and Constant (Ki). Particulars: pH 7.2; 37 °C. On the procedure:
(§1) The Km and Kappm for the amino acid substrate were first calculated from Lineweaver-Burk plots. The Ki values were calculated from the Kappm vs [I] plot. The Ki values for the inhibitors with respect for the amino acid substrates were determined by measuring the apparent Km for the amino acid in the presence of saturating concentrations of both ATP and tRNA, and of various fixed concentrations of the inhibitor.

The target in experiment [1] is T2, Probable glutamate--tRNA ligase, mitochondrial (Mus musculus, UniProt Q9CXJ1).
T2 sequence (Q9CXJ1 whole entry): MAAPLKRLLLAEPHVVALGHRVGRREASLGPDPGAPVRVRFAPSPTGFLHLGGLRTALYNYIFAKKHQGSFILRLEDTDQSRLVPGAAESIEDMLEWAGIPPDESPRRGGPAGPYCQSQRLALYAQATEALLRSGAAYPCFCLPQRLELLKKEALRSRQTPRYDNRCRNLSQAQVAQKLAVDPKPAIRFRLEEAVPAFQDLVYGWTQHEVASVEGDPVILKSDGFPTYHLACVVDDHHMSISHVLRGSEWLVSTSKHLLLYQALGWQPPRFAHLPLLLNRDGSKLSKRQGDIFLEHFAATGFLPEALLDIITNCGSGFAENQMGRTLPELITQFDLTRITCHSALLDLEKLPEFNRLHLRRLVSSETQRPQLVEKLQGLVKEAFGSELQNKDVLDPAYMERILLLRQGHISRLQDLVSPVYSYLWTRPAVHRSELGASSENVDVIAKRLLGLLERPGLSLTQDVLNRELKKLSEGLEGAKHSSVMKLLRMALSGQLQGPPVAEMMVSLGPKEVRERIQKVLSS
Described as above. The following applies: pH 8; 30 °C. As to the method: as §1

SMILES strings stand for the structures.

Turning to `Nc1ncnc2c1ncn2[C@@H]1O[C@H](COS(=O)(=O)NC(=O)[C@@H]2CCC(=O)N2)[C@@H](O)[C@H]1O` [(5S)-5-{[({[(2R,3S,4R,5R)-5-(6-amino-9H-purin-9-yl)-3,4-dihydroxyoxolan-2-yl]methoxy}sulfonyl)amino]carbonyl}pyrrolidin-2-one], the Ki on Glutamate--tRNA ligase amounted to 15000 nM.
On to `Nc1ncnc2c1ncn2[C@@H]1O[C@H](COS(=O)(=O)NC(=O)[C@@H](N)CCC(=O)O)[C@@H](O)[C@H]1O` [5-O-[N-(L-Glutamyl)-sulfamoyl]adenosine 5], for which the values for the Ki (at Glutamate--tRNA ligase; in experiment [1]) were 2.8 nM and 70 nM, respectively.
